Measured values: PubChem BioAssay (NCI)
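Tested at 5 concentrations; 48 h exposure; 96-well plates; endpoints linearly interpolated, else capped at highest concentration. TGI denotes the concentration required for complete inhibition of growth.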

How the values were obtained:
Test in all cases: DTP human tumour cell line panel, 48 h
CAKI-1 renal = tested on: CAKI-1 renal
CCRF-CEM leukemia = tested on: CCRF-CEM leukemia
HCT-15 colon = tested on: HCT-15 colon
UACC-62 melanoma = tested on: UACC-62 melanoma
OVCAR-5 ovarian = tested on: OVCAR-5 ovarian
T-47D breast = tested on: T-47D breast
OVCAR-4 ovarian = tested on: OVCAR-4 ovarian
KM12 colon = tested on: KM12 colon
SF-268 CNS = tested on: SF-268 CNS
OVCAR-8 ovarian = tested on: OVCAR-8 ovarian
HOP-92 NSCLC = tested on: HOP-92 NSCLC
SN12C renal = tested on: SN12C renal
DU-145 prostate = tested on: DU-145 prostate
HCT-116 colon = tested on: HCT-116 colon
PC-3 prostate = tested on: PC-3 prostate
SK-MEL-2 melanoma = tested on: SK-MEL-2 melanoma
MDA-MB-435 = tested on: MDA-MB-435
SNB-75 CNS = tested on: SNB-75 CNS
HCC-2998 colon = tested on: HCC-2998 colon
SK-MEL-5 melanoma = tested on: SK-MEL-5 melanoma
ACHN renal = tested on: ACHN renal
A498 renal = tested on: A498 renal
TK-10 renal = tested on: TK-10 renal
MCF7 breast = tested on: MCF7 breast
RXF 393 renal = tested on: RXF 393 renal
COLO 205 colon = tested on: COLO 205 colon
M14 melanoma = tested on: M14 melanoma
NCI/ADR-RES ovarian = tested on: NCI/ADR-RES ovarian
U251 CNS = tested on: U251 CNS
UACC-257 melanoma = tested on: UACC-257 melanoma
HS 578T breast = tested on: HS 578T breast
SNB-19 CNS = tested on: SNB-19 CNS
SF-295 CNS = tested on: SF-295 CNS
A549 NSCLC = tested on: A549 NSCLC
OVCAR-3 ovarian = tested on: OVCAR-3 ovarian
MOLT-4 leukemia = tested on: MOLT-4 leukemia
NCI-H226 lung = tested on: NCI-H226 lung
SK-MEL-28 melanoma = tested on: SK-MEL-28 melanoma
NCI-H23 lung = tested on: NCI-H23 lung
MDA-MB-231 breast = tested on: MDA-MB-231 breast
HOP-62 NSCLC = tested on: HOP-62 NSCLC
SW-620 colon = tested on: SW-620 colon
SK-OV-3 ovarian = tested on: SK-OV-3 ovarian
MDA-N = tested on: MDA-N
BT-549 breast = tested on: BT-549 breast
RPMI-8226 leukemia = tested on: RPMI-8226 leukemia
SF-539 CNS = tested on: SF-539 CNS
EKVX NSCLC = tested on: EKVX NSCLC
K-562 leukemia = tested on: K-562 leukemia
IGROV1 ovarian = tested on: IGROV1 ovarian
NCI-H460 lung = tested on: NCI-H460 lung
UO-31 renal = tested on: UO-31 renal
MALME-3M melanoma = tested on: MALME-3M melanoma
NCI-H522 lung = tested on: NCI-H522 lung
HT29 colon = tested on: HT29 colon
786-0 renal = tested on: 786-0 renal

Measured: TGI

Cc1cn(C2CC(n3cc(Cn4cc(I)c(=O)[nH]c4=O)nn3)C(CO)O2)c(=O)[nH]c1=O (stereo unspecified)
not listed: EKVX NSCLC | K-562 leukemia | IGROV1 ovarian | NCI-H460 lung | UO-31 renal | MALME-3M melanoma | NCI-H522 lung | HT29 colon | 786-0 renal
> 100 µM: all other assays above

CCN(CCO)CC1CCCC2CCCCC21 (stereo unspecified)
not listed: CCRF-CEM leukemia | MOLT-4 leukemia
> 100 µM: all other assays above
